The supplement of paper PMC12463676, “Small-molecule dissolution of stress granules by redox modulation benefits ALS models” (Nature Chemical Biology, 2025)

What was measured:
[1] = compound: NC(=O)CCCCC1CCSS1 [lipoamide]; test: thermal stability z-score vs DMSO; higher = more thermally stabilized by treatment; details: HeLa, lipoamide concentration 100 µM
Description: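 Cellular thermal proteome profiling in HeLa cells. Cells were treated with 100 µM lipoamide for 1 h, with or without 1 mM arsenate for a further 1 h, then heated to ten temperatures (37-66.3 °C), and soluble protein was quantified by TMT mass spectrometry relative to 0.1% DMSO controls. The thermal stability score (sum of log2 fold changes minus the abundance score) was transformed to a z-score; mean of n = 3 experiments.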

[2] = compound: O=[As]([O-])(O)O.[K+] [potassium arsenate]; test: as above; details: HeLa; arsenate concentration 1 mM
Description: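 Cellular thermal proteome profiling in HeLa cells treated with 1 mM arsenate for 1 h (DMSO pretreatment), heated to ten temperatures (37-66.3 °C). Soluble protein was quantified by TMT mass spectrometry relative to DMSO controls; the thermal stability score was transformed to a z-score; mean of n = 3 experiments.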

[3] = arsenate co-treatment: 1 mM arsenate 1 h
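Further: each temperature applied for 3 min, abundance score taken as mean log2 fold change at the two lowest temperatures, z-score obtained by mean subtraction and division by SD.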

## RPL23 (UniProt P62829)
[1]; [3]
  thermal stability z-score: 0.548
[1]; arsenate co-treatment: none
  thermal stability z-score: -0.122
[2]
  thermal stability z-score: -0.839

## DDX24 (UniProt Q9GZR7)
[1]; [3]
  thermal stability z-score: 1.1
[1]; arsenate co-treatment: none
  thermal stability z-score: 0.327
[2]
  thermal stability z-score: -0.522

## LXN (UniProt Q9BS40)
[1]; [3]
  thermal stability z-score: 0.274
[1]; arsenate co-treatment: none
  thermal stability z-score: 0.0402
[2]
  thermal stability z-score: 0.992

## KCTD15 (UniProt Q96SI1)
[1]; [3]
  thermal stability z-score: -0.377
[1]; arsenate co-treatment: none
  thermal stability z-score: -0.174
[2]
  thermal stability z-score: -0.89

## PLCG1 (UniProt P19174)
[1]; [3]
  thermal stability z-score: 0.538
[1]; arsenate co-treatment: none
  thermal stability z-score: 0.247
[2]
  thermal stability z-score: 0.623

## ACADSB (UniProt P45954)
[1]; [3]
  thermal stability z-score: 0.39
[1]; arsenate co-treatment: none
  thermal stability z-score: 0.509
[2]
  thermal stability z-score: 0.00788

## PGM1 (UniProt P36871)
[1]; [3]
  thermal stability z-score: -0.181
[1]; arsenate co-treatment: none
  thermal stability z-score: -0.205
[2]
  thermal stability z-score: -0.103

## ARF5 (UniProt P84085)
Sequence of UniProt P84085 (P84085 whole entry): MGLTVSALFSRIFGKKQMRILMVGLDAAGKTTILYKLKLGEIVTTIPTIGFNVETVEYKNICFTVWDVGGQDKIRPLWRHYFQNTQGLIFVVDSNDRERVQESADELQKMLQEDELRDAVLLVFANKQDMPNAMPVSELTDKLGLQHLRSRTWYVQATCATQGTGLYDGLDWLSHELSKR
[1]; [3]
  thermal stability z-score: -0.258
[1]; arsenate co-treatment: none
  thermal stability z-score: -0.517
[2]
  thermal stability z-score: -0.187

## FASTKD3 (UniProt Q14CZ7)
[1]; [3]
  thermal stability z-score: -0.0188
[1]; arsenate co-treatment: none
  thermal stability z-score: -0.107
[2]
  thermal stability z-score: -0.00397

## TBC1D5 (UniProt Q92609)
[1]; [3]
  thermal stability z-score: -0.097
[1]; arsenate co-treatment: none
  thermal stability z-score: -0.749
[2]
  thermal stability z-score: -0.0438

## XPR1 (UniProt Q9UBH6)
[1]; [3]
  thermal stability z-score: -0.458
[1]; arsenate co-treatment: none
  thermal stability z-score: -0.47
[2]
  thermal stability z-score: 0.209

## PI4K2B (UniProt Q8TCG2)
[1]; [3]
  thermal stability z-score: -0.541
[1]; arsenate co-treatment: none
  thermal stability z-score: 0.209
[2]
  thermal stability z-score: -0.451

## ROR2 (UniProt Q01974)
[1]; [3]
  thermal stability z-score: 0.3
[1]; arsenate co-treatment: none
  thermal stability z-score: 0.449
[2]
  thermal stability z-score: -0.811

## PELO (UniProt Q9BRX2)
[1]; [3]
  thermal stability z-score: -0.811
[1]; arsenate co-treatment: none
  thermal stability z-score: -0.364
[2]
  thermal stability z-score: -0.0213

## PLCB3 (UniProt Q01970)
[1]; [3]
  thermal stability z-score: -0.0239
[1]; arsenate co-treatment: none
  thermal stability z-score: -0.358
[2]
  thermal stability z-score: -0.557

## TAP1 (UniProt Q03518)
[1]; [3]
  thermal stability z-score: -0.509
[1]; arsenate co-treatment: none
  thermal stability z-score: -0.0614
[2]
  thermal stability z-score: 1.47

## BCL2L13 (UniProt Q9BXK5)
Sequence of UniProt Q9BXK5 (Q9BXK5 whole entry): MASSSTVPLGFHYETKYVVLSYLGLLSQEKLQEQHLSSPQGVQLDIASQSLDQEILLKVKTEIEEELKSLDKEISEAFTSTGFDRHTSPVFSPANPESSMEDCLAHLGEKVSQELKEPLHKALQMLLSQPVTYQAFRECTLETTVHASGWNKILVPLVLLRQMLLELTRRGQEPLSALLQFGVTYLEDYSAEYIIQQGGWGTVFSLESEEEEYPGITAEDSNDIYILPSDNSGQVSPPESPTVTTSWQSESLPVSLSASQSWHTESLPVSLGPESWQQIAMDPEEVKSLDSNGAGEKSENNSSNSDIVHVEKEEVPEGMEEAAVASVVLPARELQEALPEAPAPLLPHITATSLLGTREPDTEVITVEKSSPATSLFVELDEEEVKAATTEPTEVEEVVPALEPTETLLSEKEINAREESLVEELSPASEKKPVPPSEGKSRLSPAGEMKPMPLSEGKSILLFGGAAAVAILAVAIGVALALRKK
[1]; [3]
  thermal stability z-score: 0.605
[1]; arsenate co-treatment: none
  thermal stability z-score: 0.206
[2]
  thermal stability z-score: 0.655

## RAB13 (UniProt P51153)
[1]; [3]
  thermal stability z-score: -0.898
[1]; arsenate co-treatment: none
  thermal stability z-score: -0.475
[2]
  thermal stability z-score: 0.695

## MKLN1 (UniProt Q9UL63)
[1]; [3]
  thermal stability z-score: -0.128
[1]; arsenate co-treatment: none
  thermal stability z-score: -0.114
[2]
  thermal stability z-score: -0.403

## BAZ1A (UniProt Q9NRL2)
[1]; [3]
  thermal stability z-score: -0.258
[1]; arsenate co-treatment: none
  thermal stability z-score: 0.0591
[2]
  thermal stability z-score: -0.236

## NDUFV1 (UniProt P49821)
[1]; [3]
  thermal stability z-score: 0.281
[1]; arsenate co-treatment: none
  thermal stability z-score: 0.0892
[2]
  thermal stability z-score: 0.585

## FAM32A (UniProt Q9Y421)
[1]; [3]
  thermal stability z-score: 0.832
[1]; arsenate co-treatment: none
  thermal stability z-score: 0.827
[2]
  thermal stability z-score: 0.375

## UBE2S (UniProt Q16763)
[1]; [3]
  thermal stability z-score: 0.862
[1]; arsenate co-treatment: none
  thermal stability z-score: 0.191
[2]
  thermal stability z-score: 0.161

## PSMB2 (UniProt P49721)
[1]; [3]
  thermal stability z-score: 1.49
[1]; arsenate co-treatment: none
  thermal stability z-score: 1.31
[2]
  thermal stability z-score: 1.08

## AMD1 (UniProt P17707)
[1]; [3]
  thermal stability z-score: 0.96
[1]; arsenate co-treatment: none
  thermal stability z-score: 0.512
[2]
  thermal stability z-score: -0.105

## RSBN1L (UniProt Q6PCB5)
[1]; [3]
  thermal stability z-score: -0.0324
[1]; arsenate co-treatment: none
  thermal stability z-score: -0.225
[2]
  thermal stability z-score: 0.113

## MIOS (UniProt Q9NXC5)
[1]; [3]
  thermal stability z-score: 0.0112
[1]; arsenate co-treatment: none
  thermal stability z-score: 0.085
[2]
  thermal stability z-score: -0.469

## KDM1A (UniProt O60341)
[1]; [3]
  thermal stability z-score: 1.9
[1]; arsenate co-treatment: none
  thermal stability z-score: 2.21
[2]
  thermal stability z-score: -1.3

## RTN4IP1 (UniProt Q8WWV3)
[1]; [3]
  thermal stability z-score: -0.324
[1]; arsenate co-treatment: none
  thermal stability z-score: -0.26
[2]
  thermal stability z-score: 0.0315

## FERMT1 (UniProt Q9BQL6)
[1]; [3]
  thermal stability z-score: 0.0116
[1]; arsenate co-treatment: none
  thermal stability z-score: 0.904
[2]
  thermal stability z-score: 1.07

## B4GALT5 (UniProt O43286)
Sequence of UniProt O43286 (O43286 whole entry): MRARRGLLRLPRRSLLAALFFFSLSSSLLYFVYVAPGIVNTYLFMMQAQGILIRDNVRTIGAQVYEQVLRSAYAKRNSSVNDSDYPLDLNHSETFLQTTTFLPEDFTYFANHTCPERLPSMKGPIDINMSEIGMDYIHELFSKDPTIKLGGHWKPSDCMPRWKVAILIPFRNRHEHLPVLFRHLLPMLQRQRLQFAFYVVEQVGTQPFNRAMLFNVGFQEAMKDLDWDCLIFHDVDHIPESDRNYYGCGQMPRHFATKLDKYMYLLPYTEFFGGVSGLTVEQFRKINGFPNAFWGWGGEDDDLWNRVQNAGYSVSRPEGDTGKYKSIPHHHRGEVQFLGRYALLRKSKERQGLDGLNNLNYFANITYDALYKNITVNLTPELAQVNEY
[1]; [3]
  thermal stability z-score: -0.000852
[1]; arsenate co-treatment: none
  thermal stability z-score: -0.338
[2]
  thermal stability z-score: -0.0207

## FXR1 (UniProt P51114)
[1]; [3]
  thermal stability z-score: 0.487
[1]; arsenate co-treatment: none
  thermal stability z-score: 0.714
[2]
  thermal stability z-score: 0.794

## UHRF1BP1L (UniProt A0JNW5)
[1]; [3]
  thermal stability z-score: -0.0289
[1]; arsenate co-treatment: none
  thermal stability z-score: -0.329
[2]
  thermal stability z-score: -0.53

## RAC1 (UniProt P63000)
[1]; [3]
  thermal stability z-score: 0.154
[1]; arsenate co-treatment: none
  thermal stability z-score: -0.0299
[2]
  thermal stability z-score: 0.562

## FPGS (UniProt Q05932)
[1]; [3]
  thermal stability z-score: 0.0221
[1]; arsenate co-treatment: none
  thermal stability z-score: -0.181
[2]
  thermal stability z-score: 0.864

## RPS19 (UniProt P39019)
[1]; [3]
  thermal stability z-score: 0.104
[1]; arsenate co-treatment: none
  thermal stability z-score: 0.15
[2]
  thermal stability z-score: -1.03

## PROCR (UniProt Q9UNN8)
Sequence of UniProt Q9UNN8 (Q9UNN8 whole entry): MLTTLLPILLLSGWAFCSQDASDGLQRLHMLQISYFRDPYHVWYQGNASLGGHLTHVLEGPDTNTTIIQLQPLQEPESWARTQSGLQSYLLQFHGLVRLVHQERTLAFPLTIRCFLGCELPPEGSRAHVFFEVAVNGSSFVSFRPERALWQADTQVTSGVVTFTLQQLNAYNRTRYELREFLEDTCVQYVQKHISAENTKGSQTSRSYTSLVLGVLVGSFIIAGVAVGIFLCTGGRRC
[1]; [3]
  thermal stability z-score: 1.19
[1]; arsenate co-treatment: none
  thermal stability z-score: 0.359
[2]
  thermal stability z-score: 1.04

## HTRA2 (UniProt O43464)
[1]; [3]
  thermal stability z-score: -0.984
[1]; arsenate co-treatment: none
  thermal stability z-score: -0.617
[2]
  thermal stability z-score: -0.816

## LARP4B (UniProt Q92615)
[1]; [3]
  thermal stability z-score: 0.048
[1]; arsenate co-treatment: none
  thermal stability z-score: 0.174
[2]
  thermal stability z-score: -0.111

## CEP170B (UniProt Q9Y4F5)
[1]; [3]
  thermal stability z-score: -0.0863
[1]; arsenate co-treatment: none
  thermal stability z-score: -0.0862
[2]
  thermal stability z-score: -0.201

## PRMT3 (UniProt O60678)
[1]; [3]
  thermal stability z-score: -0.336
[1]; arsenate co-treatment: none
  thermal stability z-score: 0.22
[2]
  thermal stability z-score: -0.148

## ENOPH1 (UniProt Q9UHY7)
[1]; [3]
  thermal stability z-score: 0.0377
[1]; arsenate co-treatment: none
  thermal stability z-score: -0.118
[2]
  thermal stability z-score: -0.296

## SP1 (UniProt P08047)
Sequence of UniProt P08047 (P08047 whole entry): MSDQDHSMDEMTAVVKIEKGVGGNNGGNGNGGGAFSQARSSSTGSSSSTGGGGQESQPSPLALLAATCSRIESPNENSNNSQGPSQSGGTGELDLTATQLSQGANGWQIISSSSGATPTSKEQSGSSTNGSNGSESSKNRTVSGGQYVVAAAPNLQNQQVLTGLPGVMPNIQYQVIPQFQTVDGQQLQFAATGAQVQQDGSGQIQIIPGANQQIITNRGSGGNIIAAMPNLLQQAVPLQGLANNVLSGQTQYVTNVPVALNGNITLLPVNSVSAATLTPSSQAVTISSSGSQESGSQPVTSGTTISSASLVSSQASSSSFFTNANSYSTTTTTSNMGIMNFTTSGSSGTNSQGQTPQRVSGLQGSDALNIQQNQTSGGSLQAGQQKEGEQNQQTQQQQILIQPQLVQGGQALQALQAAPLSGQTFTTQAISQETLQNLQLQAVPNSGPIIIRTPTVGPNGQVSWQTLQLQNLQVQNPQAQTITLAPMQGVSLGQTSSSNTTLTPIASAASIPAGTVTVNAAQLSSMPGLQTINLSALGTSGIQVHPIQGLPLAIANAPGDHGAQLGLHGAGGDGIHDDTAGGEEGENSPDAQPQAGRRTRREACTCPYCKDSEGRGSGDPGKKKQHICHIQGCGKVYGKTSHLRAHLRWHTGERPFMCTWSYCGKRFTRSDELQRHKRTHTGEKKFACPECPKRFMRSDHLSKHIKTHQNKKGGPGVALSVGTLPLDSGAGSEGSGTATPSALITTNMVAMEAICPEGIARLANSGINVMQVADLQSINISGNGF
[1]; [3]
  thermal stability z-score: -0.0425
[1]; arsenate co-treatment: none
  thermal stability z-score: -0.199
[2]
  thermal stability z-score: 0.789

## C20ORF24 (UniProt Q9BUV8)
[1]; [3]
  thermal stability z-score: 0.799
[1]; arsenate co-treatment: none
  thermal stability z-score: 0.361
[2]
  thermal stability z-score: -0.477

## PRDX6 (UniProt P30041)
Sequence of UniProt P30041 (P30041 whole entry): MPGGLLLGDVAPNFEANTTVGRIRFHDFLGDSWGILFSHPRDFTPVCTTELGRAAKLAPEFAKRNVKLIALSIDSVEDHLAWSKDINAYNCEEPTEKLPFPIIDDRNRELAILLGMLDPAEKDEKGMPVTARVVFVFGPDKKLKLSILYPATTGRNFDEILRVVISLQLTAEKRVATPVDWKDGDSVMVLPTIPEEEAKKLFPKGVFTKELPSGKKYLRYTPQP
[1]; [3]
  thermal stability z-score: 0.00439
[1]; arsenate co-treatment: none
  thermal stability z-score: 0.281
[2]
  thermal stability z-score: 0.144

## ALDH1A3 (UniProt P47895)
Sequence of UniProt P47895 (P47895 whole entry): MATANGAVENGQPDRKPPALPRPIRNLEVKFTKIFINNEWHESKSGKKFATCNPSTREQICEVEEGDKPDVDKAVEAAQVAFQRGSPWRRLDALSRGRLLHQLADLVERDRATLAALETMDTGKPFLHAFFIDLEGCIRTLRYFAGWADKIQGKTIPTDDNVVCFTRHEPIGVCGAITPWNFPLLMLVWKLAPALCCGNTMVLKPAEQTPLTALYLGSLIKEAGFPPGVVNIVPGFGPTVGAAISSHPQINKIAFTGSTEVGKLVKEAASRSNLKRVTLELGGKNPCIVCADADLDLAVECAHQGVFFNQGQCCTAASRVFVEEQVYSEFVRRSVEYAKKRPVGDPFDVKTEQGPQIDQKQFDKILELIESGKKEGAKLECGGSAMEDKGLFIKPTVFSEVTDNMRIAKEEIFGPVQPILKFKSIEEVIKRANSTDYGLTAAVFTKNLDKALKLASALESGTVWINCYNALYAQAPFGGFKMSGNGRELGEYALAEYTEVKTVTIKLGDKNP
[1]; [3]
  thermal stability z-score: 0.622
[1]; arsenate co-treatment: none
  thermal stability z-score: 0.25
[2]
  thermal stability z-score: -0.284

## PRKACA (UniProt P17612)
[1]; [3]
  thermal stability z-score: 0.104
[1]; arsenate co-treatment: none
  thermal stability z-score: 0.151
[2]
  thermal stability z-score: 0.535

## E2F3 (UniProt O00716)
[1]; [3]
  thermal stability z-score: -0.295
[1]; arsenate co-treatment: none
  thermal stability z-score: -0.154
[2]
  thermal stability z-score: -0.342

## RTCB (UniProt Q9Y3I0)
[1]; [3]
  thermal stability z-score: 0.445
[1]; arsenate co-treatment: none
  thermal stability z-score: 0.0607
[2]
  thermal stability z-score: -1.21

## CWC27 (UniProt Q6UX04)
Sequence of UniProt Q6UX04 (Q6UX04 whole entry): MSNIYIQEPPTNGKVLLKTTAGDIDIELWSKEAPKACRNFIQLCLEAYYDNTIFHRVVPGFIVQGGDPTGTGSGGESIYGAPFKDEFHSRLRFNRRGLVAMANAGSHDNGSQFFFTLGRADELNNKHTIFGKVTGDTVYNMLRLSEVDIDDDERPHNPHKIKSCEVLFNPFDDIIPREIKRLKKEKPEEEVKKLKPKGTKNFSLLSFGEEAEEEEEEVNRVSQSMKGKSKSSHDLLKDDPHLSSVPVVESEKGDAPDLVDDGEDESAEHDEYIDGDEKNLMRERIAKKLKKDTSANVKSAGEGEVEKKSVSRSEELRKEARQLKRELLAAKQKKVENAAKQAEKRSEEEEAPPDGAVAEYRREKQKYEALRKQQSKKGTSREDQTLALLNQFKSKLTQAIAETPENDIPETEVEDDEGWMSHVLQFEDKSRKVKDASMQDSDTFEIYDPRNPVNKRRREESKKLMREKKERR
[1]; [3]
  thermal stability z-score: 0.0242
[1]; arsenate co-treatment: none
  thermal stability z-score: -0.348
[2]
  thermal stability z-score: -0.344

## GPHN (UniProt Q9NQX3)
[1]; [3]
  thermal stability z-score: -0.406
[1]; arsenate co-treatment: none
  thermal stability z-score: -0.149
[2]
  thermal stability z-score: -0.949

## CHORDC1 (UniProt Q9UHD1)
Sequence of UniProt Q9UHD1 (Q9UHD1 whole entry): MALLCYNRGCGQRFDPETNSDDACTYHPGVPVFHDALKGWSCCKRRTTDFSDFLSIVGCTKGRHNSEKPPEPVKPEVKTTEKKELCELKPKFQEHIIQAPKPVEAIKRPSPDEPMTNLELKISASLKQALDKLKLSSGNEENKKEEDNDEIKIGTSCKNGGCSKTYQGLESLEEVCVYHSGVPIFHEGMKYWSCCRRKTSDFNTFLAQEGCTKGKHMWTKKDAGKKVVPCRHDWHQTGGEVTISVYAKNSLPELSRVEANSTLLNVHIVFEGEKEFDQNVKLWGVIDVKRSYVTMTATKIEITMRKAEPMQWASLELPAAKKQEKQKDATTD
[1]; [3]
  thermal stability z-score: 0.149
[1]; arsenate co-treatment: none
  thermal stability z-score: 0.043
[2]
  thermal stability z-score: -0.23

## ELAC2 (UniProt Q9BQ52)
Sequence of UniProt Q9BQ52 (Q9BQ52 whole entry): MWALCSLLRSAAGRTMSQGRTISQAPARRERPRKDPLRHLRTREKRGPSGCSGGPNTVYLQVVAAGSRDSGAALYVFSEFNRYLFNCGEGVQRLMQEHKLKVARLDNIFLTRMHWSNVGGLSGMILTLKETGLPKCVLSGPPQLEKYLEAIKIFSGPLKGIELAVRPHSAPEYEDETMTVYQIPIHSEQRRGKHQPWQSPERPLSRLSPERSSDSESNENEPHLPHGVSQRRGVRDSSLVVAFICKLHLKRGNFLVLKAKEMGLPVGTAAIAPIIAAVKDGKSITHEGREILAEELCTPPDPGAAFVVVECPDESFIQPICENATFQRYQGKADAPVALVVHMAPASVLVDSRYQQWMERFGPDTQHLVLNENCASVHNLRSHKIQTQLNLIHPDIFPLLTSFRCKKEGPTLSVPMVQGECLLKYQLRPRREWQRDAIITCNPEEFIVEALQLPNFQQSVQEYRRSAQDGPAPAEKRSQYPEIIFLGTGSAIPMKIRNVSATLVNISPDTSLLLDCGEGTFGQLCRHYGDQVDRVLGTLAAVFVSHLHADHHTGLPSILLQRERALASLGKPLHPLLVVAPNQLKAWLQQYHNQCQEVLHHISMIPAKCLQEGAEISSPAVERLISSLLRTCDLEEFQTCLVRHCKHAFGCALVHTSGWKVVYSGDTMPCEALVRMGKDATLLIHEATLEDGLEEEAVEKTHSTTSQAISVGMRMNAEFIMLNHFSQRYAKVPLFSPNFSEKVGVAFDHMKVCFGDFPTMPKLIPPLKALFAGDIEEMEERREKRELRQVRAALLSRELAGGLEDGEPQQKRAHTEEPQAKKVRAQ
[1]; [3]
  thermal stability z-score: -0.243
[1]; arsenate co-treatment: none
  thermal stability z-score: -0.21
[2]
  thermal stability z-score: -0.274

## CTAG2 (UniProt O75638)
Sequence of UniProt O75638 (O75638 whole entry): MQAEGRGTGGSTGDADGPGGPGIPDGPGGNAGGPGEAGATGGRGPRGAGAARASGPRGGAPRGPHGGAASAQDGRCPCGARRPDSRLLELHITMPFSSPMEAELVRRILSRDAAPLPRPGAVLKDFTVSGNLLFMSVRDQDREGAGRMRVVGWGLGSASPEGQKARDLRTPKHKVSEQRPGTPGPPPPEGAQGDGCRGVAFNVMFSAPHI
[1]; [3]
  thermal stability z-score: -0.394
[1]; arsenate co-treatment: none
  thermal stability z-score: 0.0387
[2]
  thermal stability z-score: 0.617

## DCXR (UniProt Q7Z4W1)
Sequence of UniProt Q7Z4W1 (Q7Z4W1 whole entry): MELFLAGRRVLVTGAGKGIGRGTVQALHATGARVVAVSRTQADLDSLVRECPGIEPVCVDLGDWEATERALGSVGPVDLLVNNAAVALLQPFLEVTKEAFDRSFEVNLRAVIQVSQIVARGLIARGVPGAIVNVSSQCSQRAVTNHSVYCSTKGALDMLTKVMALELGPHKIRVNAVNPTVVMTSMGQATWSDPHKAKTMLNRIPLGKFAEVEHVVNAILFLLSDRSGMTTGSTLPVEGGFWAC
[1]; [3]
  thermal stability z-score: 0.346
[1]; arsenate co-treatment: none
  thermal stability z-score: -0.203
[2]
  thermal stability z-score: 0.528
